Reference: patent US20240270762A1, “PENICILLIN-BINDING PROTEIN INHIBITORS” (priority 2021, published 2024)
In brackets after ≈: the same amount, converted by molar mass. Where two headings read alike, the source gives them in different places.

Legend:
[1] = system: P. aeruginosa (ΔmexAB-oprM); assay: Broth microdilution MIC in iron-depleted CAMHB (IDM); type: cell-based; conditions: Pseudomonas aeruginosa; iron-depleted CAMHB (IDM); […]; read-out: Minimum inhibitory concentration, P. aeruginosa ΔmexAB-oprM
A. baumannii PBP1a = target: T1, A. baumannii PBP1a (Acinetobacter baumannii, UniProt A0ABX6CK30); assay: Bocillin-FL competition binding via gel filtration, A. baumannii PBP1a; conditions: competition binding assay using Bocillin-FL via gel filtration; read-out: A. baumannii PBP1a Potency
T1 sequence (A0ABX6CK30 1-851): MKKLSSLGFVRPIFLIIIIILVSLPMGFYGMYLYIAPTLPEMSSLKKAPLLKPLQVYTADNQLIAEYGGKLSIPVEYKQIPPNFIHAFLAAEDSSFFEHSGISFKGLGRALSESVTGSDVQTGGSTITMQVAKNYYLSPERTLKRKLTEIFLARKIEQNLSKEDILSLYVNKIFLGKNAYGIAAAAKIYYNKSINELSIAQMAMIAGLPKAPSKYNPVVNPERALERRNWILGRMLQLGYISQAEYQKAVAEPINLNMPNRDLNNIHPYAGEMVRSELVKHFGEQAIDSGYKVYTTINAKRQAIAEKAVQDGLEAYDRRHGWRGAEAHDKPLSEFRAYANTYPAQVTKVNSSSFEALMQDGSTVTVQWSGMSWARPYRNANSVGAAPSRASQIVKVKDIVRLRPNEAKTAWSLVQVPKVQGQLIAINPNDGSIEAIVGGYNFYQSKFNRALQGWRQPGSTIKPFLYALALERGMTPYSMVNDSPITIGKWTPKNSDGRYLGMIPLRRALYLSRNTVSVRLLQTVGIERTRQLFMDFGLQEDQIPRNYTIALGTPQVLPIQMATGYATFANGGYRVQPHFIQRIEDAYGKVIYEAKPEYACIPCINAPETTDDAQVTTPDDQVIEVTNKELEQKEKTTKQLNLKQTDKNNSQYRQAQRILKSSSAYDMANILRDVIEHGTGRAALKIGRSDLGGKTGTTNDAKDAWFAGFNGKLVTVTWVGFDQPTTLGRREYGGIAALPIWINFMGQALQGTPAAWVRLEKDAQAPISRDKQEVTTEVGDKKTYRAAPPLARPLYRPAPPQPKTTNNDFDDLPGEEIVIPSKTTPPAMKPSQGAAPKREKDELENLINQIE
In short: (§1)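 Enzyme pre-incubated with increasing inhibitor concentrations, then Bocillin-FL added for 15 min further incubation. Bocillin-FL-bound PBP separated by gel filtration and fluorescence read. EC50 from fitting fraction PBP bound vs inhibitor concentration to a Hill-type equation (ymin, ymax, n).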

P. aeruginosa CDC-0054 = assay: microbe, parasite or virus in culture; type: cell-based; conditions: Pseudomonas aeruginosa, CDC0054, read-out: Minimum inhibitory concentration, P. aeruginosa CDC-0054
P. aeruginosa CDC-0090 = assay: microbe, parasite or virus in culture; type: cell-based; conditions: Pseudomonas aeruginosa, CDC0090, read-out: Minimum inhibitory concentration, P. aeruginosa CDC-0090
A. baumannii PBP2 = A. baumannii PBP2 (Acinetobacter baumannii, UniProt D0C8Z9); assay: Bocillin-FL competition binding via gel filtration, A. baumannii PBP2
Chain of A. baumannii PBP2 (D0C8Z9 whole entry): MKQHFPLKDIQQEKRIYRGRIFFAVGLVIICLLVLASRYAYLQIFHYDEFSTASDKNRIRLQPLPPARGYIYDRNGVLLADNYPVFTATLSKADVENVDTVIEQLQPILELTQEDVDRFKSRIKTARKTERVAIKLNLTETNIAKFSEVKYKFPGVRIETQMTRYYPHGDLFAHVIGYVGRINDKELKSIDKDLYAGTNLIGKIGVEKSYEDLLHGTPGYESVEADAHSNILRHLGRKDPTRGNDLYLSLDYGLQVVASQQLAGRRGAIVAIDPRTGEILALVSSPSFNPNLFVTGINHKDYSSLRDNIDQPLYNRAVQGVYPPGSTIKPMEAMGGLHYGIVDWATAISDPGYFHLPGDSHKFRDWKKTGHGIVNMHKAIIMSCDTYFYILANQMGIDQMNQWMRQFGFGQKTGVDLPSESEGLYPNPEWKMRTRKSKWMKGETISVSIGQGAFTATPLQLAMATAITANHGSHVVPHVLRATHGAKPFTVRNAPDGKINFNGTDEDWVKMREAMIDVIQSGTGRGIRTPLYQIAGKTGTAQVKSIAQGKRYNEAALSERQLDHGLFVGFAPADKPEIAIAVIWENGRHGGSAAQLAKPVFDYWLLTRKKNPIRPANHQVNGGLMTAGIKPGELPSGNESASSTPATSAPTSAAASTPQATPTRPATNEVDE
In short: as §1

A. baumannii CDC-0045 = assay: microbe, parasite or virus in culture; type: cell-based; conditions: Acinetobacter baumannii
P. aeruginosa ATCC 27853 = assay: microbe, parasite or virus in culture; type: cell-based; conditions: Pseudomonas aeruginosa, ATCC27853, read-out: Minimum inhibitory concentration, P. aeruginosa ATCC 27853
[2] = system: B. humptydooensis ATCC BAA-2767; assay: microbe, parasite or virus in culture; type: cell-based; conditions: Burkholderia humptydooensis, ATCCBAA2767, read-out: Minimum inhibitory concentration (MIC), B. humptydooensis ATCC BAA-2767
A. baumannii 1258916 = assay: microbe, parasite or virus in culture; type: cell-based, Acinetobacter baumannii
[3] = CDC0045, read-out: MIC, A. baumannii CDC-0045
[4] = Acinetobacter baumannii, 1258916, read-out: MIC, A. baumannii 1258916
[5] = CDC0045, read-out: Minimum inhibitory concentration (MIC), A. baumannii CDC-0045
[6] = Acinetobacter baumannii, 1258916, read-out: Minimum inhibitory concentration (MIC), A. baumannii 1258916

Row | SMILES | MIC [1] | EC50 (A. baumannii PBP1a) | MIC (P. aeruginosa CDC-0054) | MIC (P. aeruginosa CDC-0090) | EC50 (A. baumannii PBP2) | MIC (A. baumannii CDC-0045; [3]) | MIC (P. aeruginosa ATCC 27853) | MIC [2] | MIC (A. baumannii 1258916; [4]) | MIC (A. baumannii CDC-0045; [5]) | MIC (A. baumannii 1258916; [6])
1 | O=C(O)c1c(F)ccc2c1OB(O)[C@@H](NC(=O)[C@H](NC(=O)N1CCN(C3CCN(C(=O)c4cccc(O)c4Cl)CC3)C1=O)c1cc(F)c(O)c(O)c1Cl)C2 (single isomer, unassigned) [Example 432] | < 1 µg/mL | < 10 µM | < 1 µg/mL | < 1 µg/mL | < 10 µM | < 1 µg/mL | < 1 µg/mL | < 1 µg/mL | < 1 µg/mL |  | 
2 | O=C(O)c1c(F)ccc2c1OB(O)[C@@H](NC(=O)[C@H](NC(=O)N1CCN(C3CCN(C(=O)Nc4c(F)ccc(O)c4F)CC3)C1=O)c1cc(F)c(O)c(O)c1Cl)C2 (single isomer, unassigned) [Example 454] | < 1 µg/mL | < 10 µM | < 1 µg/mL | 2 to 4 µg/mL (≈ 2.47 to 4.95 µM) | < 10 µM | < 1 µg/mL | 2 to 4 µg/mL (≈ 2.47 to 4.95 µM) | < 1 µg/mL | < 1 µg/mL |  | 
3 | O=C(O)c1c(F)ccc2c1OB(O)[C@@H](NC(=O)[C@H](NC(=O)N1CCN(C3CCN(C(=O)c4c(F)ccc(O)c4Cl)CC3)C1=O)c1cc(F)c(O)c(O)c1Cl)C2 (single isomer, unassigned) [Example 440] | < 1 µg/mL | < 10 µM | < 1 µg/mL | < 1 µg/mL | < 10 µM | < 1 µg/mL | < 1 µg/mL | < 1 µg/mL | < 1 µg/mL |  | 
4 | O=C(O)c1c(F)ccc2c1OB(O)[C@@H](NC(=O)[C@H](NC(=O)N1CCN(S(=O)(=O)c3ccc(O)c(O)c3Cl)C1=O)c1ccc(P(=O)(O)O)cc1)C2 [Example 506, (R)-3-((R)-2-(3-((2-chloro-3,4-dihydroxyphenyl)sulfonyl)-2-oxoimidazolidine-1-carboxamido)-2-(4-phosphonophenyl)acetamido)-7-fluoro-2-hydroxy-3,4-dihydro-2H-benzo[e][1,2]oxaborinine-8-carboxylic acid] | < 1 µg/mL |  | < 1 µg/mL | < 1 µg/mL |  |  | < 1 µg/mL | < 1 µg/mL |  | < 1 µg/mL | < 1 µg/mL
5 | O=C(O)c1c(F)ccc2c1OB(O)[C@@H](NC(=O)[C@H](NC(=O)N1CCN(C3CCN(C(=O)Nc4ccc(O)cc4)CC3)C(=O)C1=O)c1cc(F)c(O)c(O)c1Cl)C2 (single isomer, unassigned) [Example 426] | < 1 µg/mL | 10 to 50 µM | < 1 µg/mL | < 1 µg/mL | 10 to 50 µM | 2 to 4 µg/mL (≈ 2.5 to 4.99 µM) | 2 to 4 µg/mL (≈ 2.5 to 4.99 µM) | < 1 µg/mL | 2 to 4 µg/mL (≈ 2.5 to 4.99 µM) |  | 
6 | O=C(O)c1c(F)ccc2c1OB(O)[C@@H](NC(=O)C(NC(=O)N1CCN(S(=O)(=O)c3ccc(O)c(O)c3Cl)C1=O)c1ccc(P(=O)(O)O)cc1)C2 (stereo partly drawn) [Example 505, (3R)-3-(2-(3-((2-chloro-3,4-dihydroxyphenyl)sulfonyl)-2-oxoimidazolidine-1-carboxamido)-2-(4-phosphonophenyl)acetamido)-7-fluoro-2-hydroxy-3,4-dihydro-2H-benzo[e][1,2]oxaborinine-8-carboxylic acid] | < 1 µg/mL | < 10 µM | < 1 µg/mL | < 1 µg/mL | < 10 µM |  | < 1 µg/mL | < 1 µg/mL |  | < 1 µg/mL | < 1 µg/mL
